Values belong to the compound of their own block, whether it stands above or below them.
Experiments:
[1] = Formation of 1,5-cz-[Ln(Lig)] from Lig and Ln^III ions (metal dependent click-zip), MOPS/NaOH buffer pH 7.0, analytical HPLC (Charts 1, 2); settings: MOPS/NaOH buffer pH 7.0
[2] = Formation of 1,5-cz-[M(Lig)] from Lig and M^III ions (metal dependent click-zip) (Charts 4, 5); type: physicochemical; settings: for conversion to 1,5-cz-[M(Lig)], Y^III / conversion to 1,5-cz-[M(Lig)], Sc^III: MOPS/NaOH buffer pH 7.0, TD728, TD827 in 50% i-PrOH; for conversion to 1,5-cz-[M(Lig)], Y^III: TD714 sum of two diastereoisomers; for conversion to 1,5-cz-[M(Lig)], Bi^III: 4% DMSO in MOPS/NaOH buffer pH 7.0, TD728 in 50% i-PrOH
[3] = Formation of 1,5-cz-[M(Lig)] from Lig and M^II ions (metal dependent click-zip) (Charts 6, 7); type: physicochemical; settings: MOPS/NaOH buffer pH 7.0; for conversion to 1,5-cz-[M(Lig)], Ca^II / conversion to 1,5-cz-[M(Lig)], Cd^II / conversion to 1,5-cz-[M(Lig)], Mn^II / conversion to 1,5-cz-[M(Lig)], Pb^II / conversion to 1,5-cz-[M(Lig)], Pd^II: TD728 in 50% i-PrOH
[4] = Alkali metal dependent formation of 1,5-cz-Lig and 1,4-cz-Lig isomers from Lig at pH 10.2 (Chart 14); type: physicochemical; settings: B: 1 day at 80° C., Borate/(M^I)2CO3 buffer pH 10.2
[5] = 1 hour at 80° C., TD714 sum of two diastereoisomers
[6] = visible analyte free precipitate

conversion to 1,5-cz-[Ln(Lig)], Ce^III ([1]; after 1 week at 80° C.): 40%
conversion to 1,5-cz-[Ln(Lig)], Ce^III ([1]; after 1 hour at 80° C.): 1%
conversion to 1,5-cz-[Ln(Lig)], Dy^III ([1]; after 1 week at 80° C.): 91%
conversion to 1,5-cz-[Ln(Lig)], Dy^III ([1]; after 1 hour at 80° C.): 23%
conversion to 1,5-cz-[Ln(Lig)], Er^III ([1]; after 1 week at 80° C.): 93%
conversion to 1,5-cz-[Ln(Lig)], Er^III ([1]; after 1 hour at 80° C.): 34%
conversion to 1,5-cz-[Ln(Lig)], Eu^III ([1]; after 1 week at 80° C.): 85%
conversion to 1,5-cz-[Ln(Lig)], Eu^III ([1]; after 1 hour at 80° C.): 7%
conversion to 1,5-cz-[Ln(Lig)], Gd^III ([1]; after 1 week at 80° C.): 85%
conversion to 1,5-cz-[Ln(Lig)], Gd^III ([1]; after 1 hour at 80° C.): 9%
conversion to 1,5-cz-[Ln(Lig)], Ho^III ([1]; after 1 week at 80° C.): 93%
conversion to 1,5-cz-[Ln(Lig)], Ho^III ([1]; after 1 hour at 80° C.): 26%
conversion to 1,5-cz-[Ln(Lig)], La^III ([1]; after 1 week at 80° C.): 4%
conversion to 1,5-cz-[Ln(Lig)], La^III ([1]; after 1 hour at 80° C.): 0%
conversion to 1,5-cz-[Ln(Lig)], Lu^III ([1]; after 1 week at 80° C.): 93%
conversion to 1,5-cz-[Ln(Lig)], Lu^III ([1]; after 1 hour at 80° C.): 37%
conversion to 1,5-cz-[Ln(Lig)], Nd^III ([1]; after 1 week at 80° C.): 73%
conversion to 1,5-cz-[Ln(Lig)], Nd^III ([1]; after 1 hour at 80° C.): 3%
conversion to 1,5-cz-[Ln(Lig)], Pr^III ([1]; after 1 week at 80° C.): 80%
conversion to 1,5-cz-[Ln(Lig)], Pr^III ([1]; after 1 hour at 80° C.): 2%
conversion to 1,5-cz-[Ln(Lig)], Sm^III ([1]; after 1 week at 80° C.): 82%
conversion to 1,5-cz-[Ln(Lig)], Sm^III ([1]; after 1 hour at 80° C.): 5%
conversion to 1,5-cz-[Ln(Lig)], Tb^III ([1]; after 1 week at 80° C.): 92%
conversion to 1,5-cz-[Ln(Lig)], Tb^III ([1]; after 1 hour at 80° C.): 17%
conversion to 1,5-cz-[Ln(Lig)], Tm^III ([1]; after 1 week at 80° C.): 94%
conversion to 1,5-cz-[Ln(Lig)], Tm^III ([1]; after 1 hour at 80° C.): 40%
conversion to 1,5-cz-[Ln(Lig)], Yb^III ([1]; after 1 week at 80° C.): 93%
conversion to 1,5-cz-[Ln(Lig)], Yb^III ([1]; after 1 hour at 80° C.): 40%
conversion to 1,5-cz-[M(Lig)], Y^III ([2]; 1 week at 80° C.): 89%
conversion to 1,5-cz-[M(Lig)], Y^III ([2]; 1 hour at 80° C.): 22%
conversion to 1,5-cz-[M(Lig)], Ba^II ([3]; 1 week at 80° C.): 0%
conversion to 1,5-cz-[M(Lig)], Sr^II ([3]; 1 week at 80° C.): 0%
conversion to 1,5-cz-[M(Lig)], Ca^II ([3]; 1 week at 80° C.): 6%
conversion to 1,5-cz-[M(Lig)], Cd^II ([3]; 1 week at 80° C.): 92%
conversion to 1,5-cz-[M(Lig)], Ba^II ([3]; 1 hour at 80° C.): 0%
conversion to 1,5-cz-[M(Lig)], Sr^II ([3]; 1 hour at 80° C.): 0%
conversion to 1,5-cz-[M(Lig)], Ca^II ([3]; 1 hour at 80° C.): 0%
conversion to 1,5-cz-[M(Lig)], Cd^II [3, 5]: 89%
conversion to 1,4-cz-Lig isomer, Cs^I [4]: 44%
conversion to 1,4-cz-Lig isomer, K^I [4]: 46%
conversion to 1,4-cz-Lig isomer, Na^I [4]: 7%
conversion to 1,4-cz-Lig isomer, Rb^I [4]: 45%
conversion to 1,5-cz-Lig isomer, Cs^I [4]: 9%
conversion to 1,5-cz-Lig isomer, K^I [4]: 10%
conversion to 1,5-cz-Lig isomer, Na^I [4]: 81%
conversion to 1,5-cz-Lig isomer, Rb^I [4]: 9%
conversion to 1,4-cz-Lig isomer, Li^I [4, 6]: 12%
conversion to 1,5-cz-Lig isomer, Li^I [4, 6]: 15%
Compound: C#Cc1cccc(CN2CCN(CC(=O)O)CCN(Cc3cccc(CN=[N+]=[N-])n3)CCN(CP(=O)(O)O)CC2)n1 [TD714]

conversion to 1,5-cz-[Ln(Lig)], Ce^III ([1]; after 1 week at 80° C.): 20%
conversion to 1,5-cz-[Ln(Lig)], Dy^III ([1]; after 1 week at 80° C.): 93%
conversion to 1,5-cz-[Ln(Lig)], Er^III ([1]; after 1 week at 80° C.): 95%
conversion to 1,5-cz-[Ln(Lig)], Eu^III ([1]; after 1 week at 80° C.): 79%
conversion to 1,5-cz-[Ln(Lig)], Gd^III ([1]; after 1 week at 80° C.): 86%
conversion to 1,5-cz-[Ln(Lig)], Ho^III ([1]; after 1 week at 80° C.): 94%
conversion to 1,5-cz-[Ln(Lig)], La^III ([1]; after 1 week at 80° C.): 25%
conversion to 1,5-cz-[Ln(Lig)], Lu^III ([1]; after 1 week at 80° C.): 96%
conversion to 1,5-cz-[Ln(Lig)], Nd^III ([1]; after 1 week at 80° C.): 50%
conversion to 1,5-cz-[Ln(Lig)], Pr^III ([1]; after 1 week at 80° C.): 35%
conversion to 1,5-cz-[Ln(Lig)], Sm^III ([1]; after 1 week at 80° C.): 73%
conversion to 1,5-cz-[Ln(Lig)], Tb^III ([1]; after 1 week at 80° C.): 91%
conversion to 1,5-cz-[Ln(Lig)], Tm^III ([1]; after 1 week at 80° C.): 96%
conversion to 1,5-cz-[Ln(Lig)], Yb^III ([1]; after 1 week at 80° C.): 96%
conversion to 1,5-cz-[M(Lig)], Bi^III ([2]; 1 week at 80° C.): 85%
conversion to 1,5-cz-[M(Lig)], Sc^III ([2]; 1 week at 80° C.): 5%
conversion to 1,5-cz-[M(Lig)], Y^III ([2]; 1 week at 80° C.): 95%
conversion to 1,5-cz-[M(Lig)], Bi^III ([2]; 1 hour at 80° C.): 31%
conversion to 1,5-cz-[M(Lig)], Ca^II ([3]; 1 week at 80° C.): 95%
conversion to 1,5-cz-[M(Lig)], Cd^II ([3]; 1 week at 80° C.): 96%
conversion to 1,5-cz-[M(Lig)], Mn^II ([3]; 1 week at 80° C.): 35%
conversion to 1,5-cz-[M(Lig)], Pb^II ([3]; 1 week at 80° C.): 37%
conversion to 1,5-cz-[M(Lig)], Pd^II ([3]; 1 week at 80° C.): 9%
conversion to 1,5-cz-[M(Lig)], Ca^II ([3]; 1 hour at 80° C.): 16%
conversion to 1,5-cz-[M(Lig)], Mn^II ([3]; 1 hour at 80° C.): 1%
conversion to 1,5-cz-[M(Lig)], Pb^II ([3]; 1 hour at 80° C.): 1%
conversion to 1,5-cz-[M(Lig)], Pd^II ([3]; 1 hour at 80° C.): 10%
conversion to 1,5-cz-[M(Lig)], Cd^II [3, 5]: 53%
Compound: C#Cc1cccc(CN2CCN(CC(=O)O)CCN(Cc3cc(Cl)cc(CN=[N+]=[N-])n3)CCN(CC(=O)O)CC2)n1 [TD764]

conversion to 1,5-cz-[Ln(Lig)], Ce^III ([1]; after 1 week at 80° C.): 11%
conversion to 1,5-cz-[Ln(Lig)], Ce^III ([1]; after 1 hour at 80° C.): 0%
conversion to 1,5-cz-[Ln(Lig)], Dy^III ([1]; after 1 week at 80° C.): 76%
conversion to 1,5-cz-[Ln(Lig)], Dy^III ([1]; after 1 hour at 80° C.): 1%
conversion to 1,5-cz-[Ln(Lig)], Er^III ([1]; after 1 week at 80° C.): 93%
conversion to 1,5-cz-[Ln(Lig)], Er^III ([1]; after 1 hour at 80° C.): 3%
conversion to 1,5-cz-[Ln(Lig)], Eu^III ([1]; after 1 week at 80° C.): 51%
conversion to 1,5-cz-[Ln(Lig)], Eu^III ([1]; after 1 hour at 80° C.): 1%
conversion to 1,5-cz-[Ln(Lig)], Gd^III ([1]; after 1 week at 80° C.): 54%
conversion to 1,5-cz-[Ln(Lig)], Gd^III ([1]; after 1 hour at 80° C.): 1%
conversion to 1,5-cz-[Ln(Lig)], Ho^III ([1]; after 1 week at 80° C.): 84%
conversion to 1,5-cz-[Ln(Lig)], Ho^III ([1]; after 1 hour at 80° C.): 2%
conversion to 1,5-cz-[Ln(Lig)], La^III ([1]; after 1 week at 80° C.): 18%
conversion to 1,5-cz-[Ln(Lig)], La^III ([1]; after 1 hour at 80° C.): 0%
conversion to 1,5-cz-[Ln(Lig)], Lu^III ([1]; after 1 week at 80° C.): 99%
conversion to 1,5-cz-[Ln(Lig)], Lu^III ([1]; after 1 hour at 80° C.): 6%
conversion to 1,5-cz-[Ln(Lig)], Nd^III ([1]; after 1 week at 80° C.): 34%
conversion to 1,5-cz-[Ln(Lig)], Nd^III ([1]; after 1 hour at 80° C.): 0%
conversion to 1,5-cz-[Ln(Lig)], Pr^III ([1]; after 1 week at 80° C.): 27%
conversion to 1,5-cz-[Ln(Lig)], Pr^III ([1]; after 1 hour at 80° C.): 0%
conversion to 1,5-cz-[Ln(Lig)], Sm^III ([1]; after 1 week at 80° C.): 48%
conversion to 1,5-cz-[Ln(Lig)], Sm^III ([1]; after 1 hour at 80° C.): 1%
conversion to 1,5-cz-[Ln(Lig)], Tb^III ([1]; after 1 week at 80° C.): 68%
conversion to 1,5-cz-[Ln(Lig)], Tb^III ([1]; after 1 hour at 80° C.): 1%
conversion to 1,5-cz-[Ln(Lig)], Tm^III ([1]; after 1 week at 80° C.): 97%
conversion to 1,5-cz-[Ln(Lig)], Tm^III ([1]; after 1 hour at 80° C.): 4%
conversion to 1,5-cz-[Ln(Lig)], Yb^III ([1]; after 1 week at 80° C.): 98%
conversion to 1,5-cz-[Ln(Lig)], Yb^III ([1]; after 1 hour at 80° C.): 5%
conversion to 1,5-cz-[M(Lig)], Sc^III ([2]; 1 week at 80° C.): 1%
conversion to 1,5-cz-[M(Lig)], Y^III ([2]; 1 week at 80° C.): 82%
conversion to 1,5-cz-[M(Lig)], Sc^III ([2]; 1 hour at 80° C.): 0%
conversion to 1,5-cz-[M(Lig)], Y^III ([2]; 1 hour at 80° C.): 1%
conversion to 1,5-cz-[M(Lig)], Ca^II ([3]; 1 week at 80° C.): 83%
conversion to 1,5-cz-[M(Lig)], Cd^II ([3]; 1 week at 80° C.): 96%
conversion to 1,5-cz-[M(Lig)], Ca^II ([3]; 1 hour at 80° C.): 1%
conversion to 1,5-cz-[M(Lig)], Cd^II [3, 5]: 2%
Compound: CC(C)(C)C#Cc1cccc(CN2CCN(CC(=O)O)CCN(Cc3cccc(CN=[N+]=[N-])n3)CCN(CC(=O)O)CC2)n1 [TD959]

Source: patent US20250147039A1, “Compounds for complexation of rare earth elements and/or s-, p-, d- block metals, their coordination compounds, peptide conjugates, method of their preparation and use thereof” (USTAV ORGANICKE CHEMIE A BIOCHEMIE AV CR V.V.I., priority 2021, published 2025)
